Measured values published in DBAASP.
Values after ≈ are worked out from the molar mass of the structure shown. Values joined by “and” are separate entries in the source; they are usually repeats but may differ in a detail not shown here. Equal entries are not always repeated. Blank lines part the entries; values can stand above or below the compound they belong to.

Columns and labels:
Experiment in all cases: ≥ marks a high value that may be exact or a test limit, other limits are often not marked, values filed in µg/mL are converted to µM
[1] = tested on: Candida albicans ATCC 10231
[2] = tested on: Cryptococcus neoformans ATCC 32045
[3] = tested on: Staphylococcus aureus ATCC 33591
[4] = tested on: Pseudomonas aeruginosa ATCC 10145
[5] = tested on: Escherichia coli ATCC 2592
[6] = tested on: Escherichia coli K-12
[7] = tested on: Staphylococcus aureus JE2
[8] = tested on: Escherichia coli UB1005
[9] = tested on: Pseudomonas aeruginosa H187
[10] = tested on: Salmonella enterica subsp. enterica serovar Typhimurium ATCC 14028
[11] = tested on: Salmonella enterica subsp. enterica serovar Choleraesuis CVCC 503
[12] = tested on: Salmonella enterica subsp. enterica serovar Typhimurium C77-31
[13] = tested on: Candida parapsilosis CGMCC 2.3989
[14] = tested on: Staphylococcus epidermidis ATCC 12228
[15] = tested on: Candida albicans
[16] = tested on: Enterococcus faecalis ATCC 29212
[17] = tested on: Pseudomonas aeruginosa ATCC 27853
[18] = tested on: Staphylococcus aureus ATCC 29213
[19] = tested on: Staphylococcus aureus ATCC 43300
[20] = tested on: Pseudomonas aeruginosa PAO1
[21] = tested on: Staphylococcus aureus ATCC 25923
[22] = tested on: Candida tropicalis CGMCC 2.1975
[23] = tested on: Staphylococcus aureus CCARM 3089
[24] = tested on: Enterococcus faecium ATCC 51559
[25] = tested on: Pseudomonas aeruginosa CCARM 2095
[26] = tested on: Bacillus subtilis KCTC 3068
[27] = tested on: Pseudomonas aeruginosa CCARM 2109
[28] = tested on: Staphylococcus epidermidis KCTC 1917
[29] = tested on: Staphylococcus aureus KCTC 1621
[30] = tested on: Pseudomonas aeruginosa KCTC 1637
[31] = tested on: Staphylococcus aureus CCARM 3090
[32] = tested on: Escherichia coli KCTC 1682
[33] = tested on: Staphylococcus aureus CCARM 3095
[34] = tested on: Salmonella typhimurium KCTC 1926

- MIC [10]: > 64 µM
- MIC [12]: ≥ 64 µM
- MIC [13]: 4 µM (≈ 13.1 µg/mL)
- MIC [14]: > 64 µM
- MIC [15]: 5.66 µM (≈ 18.5 µg/mL)
- MIC [8]: 2 µM (≈ 6.54 µg/mL)
- MIC [16]: > 64 µM
- MIC [17]: > 64 µM
- MIC [18]: > 64 µM
- MIC [19]: > 64 µM
- MIC [20]: > 64 µM
- MIC [21]: > 64 µM
- MIC [22]: 2 µM (≈ 6.54 µg/mL)
SMILES: CC(C)C[C@H](NC(=O)[C@H](CCCN=C(N)N)NC(=O)[C@H](C)NC(=O)[C@H](CS)NC(=O)[C@H](CC(C)C)NC(=O)[C@H](CCCCN)NC(=O)[C@H](CCCCN)NC(=O)[C@H](CC(C)C)NC(=O)[C@H](CCCN=C(N)N)NC(=O)[C@H](C)NC(=O)[C@H](CS)NC(=O)[C@H](CC(C)C)NC(=O)[C@H](CCCCN)NC(=O)[C@H](CCCCN)NC(=O)[C@H](CC(C)C)NC(=O)[C@H](CCCN=C(N)N)NC(=O)[C@H](C)NC(=O)[C@H](CS)NC(=O)[C@H](CC(C)C)NC(=O)[C@H](CCCCN)NC(=O)[C@H](CCCCN)NC(=O)[C@@H](N)CC(C)C)C(=O)N[C@@H](CCCCN)C(=O)N[C@@H](CCCCN)C(=O)N[C@@H](CC(C)C)C(=O)N[C@@H](CS)C(=O)N[C@@H](C)C(=O)N[C@@H](CCCN=C(N)N)C(N)=O [LKKLCARLKKLCARLKKLCARLKKLCAR]
- MIC [11]: ≥ 64 µM

- MIC [23]: 4 µM (≈ 9.44 µg/mL)
- MIC [24]: 4 µM (≈ 9.44 µg/mL)
- MIC [25]: 2 µM (≈ 4.72 µg/mL)
- MIC [26]: 2 µM (≈ 4.72 µg/mL)
- MIC [27]: 4 µM (≈ 9.44 µg/mL)
- MIC [28]: 4 µM (≈ 9.44 µg/mL)
- MIC [29]: 2 µM and 4 µM
- MIC [30]: 8 µM (≈ 18.9 µg/mL)
- MIC [31]: 2 µM (≈ 4.72 µg/mL)
- MIC [32]: 4 µM and 8 µM
- MIC [33]: 2 µM (≈ 4.72 µg/mL)
- MIC [34]: 2 µM (≈ 4.72 µg/mL)
SMILES: CC[C@H](C)[C@H](NC(=O)[C@H](C)NC(=O)[C@H](CCCN=C(N)N)NC(=O)[C@H](Cc1ccc(O)cc1)NC(=O)[C@H](CC(C)C)NC(=O)[C@H](CCCCN)NC(=O)[C@H](Cc1ccc(O)cc1)NC(=O)CNC(=O)[C@H](C)NC(=O)[C@H](CCCN=C(N)N)NC(=O)[C@@H](NC(=O)[C@H](Cc1c[nH]c2ccccc12)NC(=O)[C@H](CCCN=C(N)N)NC(=O)[C@@H](NC(=O)[C@@H](NC(=O)[C@@H](N)CC(C)C)C(C)C)[C@@H](C)CC)C(C)C)C(=O)N[C@@H](CCCCN)C(=O)N[C@@H](CCCCN)C(=O)N[C@@H](CCCCN)C(N)=O [LVIRWVRAGYKLYRAIKKK]

- MIC [23]: 12.5 µM (≈ 31 µg/mL)
- MIC [24]: 25 µM (≈ 62 µg/mL)
- MIC [25]: ≥ 50 µM
- MIC [26]: 12.5 µM (≈ 31 µg/mL)
- MIC [28]: 12.5 µM (≈ 31 µg/mL)
- MIC [29]: 12.5 µM (≈ 31 µg/mL)
- MIC [30]: 12.5 µM (≈ 31 µg/mL)
- MIC [31]: 25 µM (≈ 62 µg/mL)
- MIC [32]: 12.5 µM (≈ 31 µg/mL)
- MIC [33]: 12.5 µM (≈ 31 µg/mL)
- MIC [34]: 12.5 µM (≈ 31 µg/mL)
SMILES: CC[C@H](C)[C@@H]1NC(=O)[C@H]([C@@H](C)O)NC(=O)[C@H](Cc2cnc[nH]2)NC(=O)[C@H](CCCN=C(N)N)NC(=O)[C@H](C)NC(=O)[C@H](CCCN=C(N)N)NC(=O)[C@H](CC(C)C)NC(=O)[C@H](CO)NC(=O)[C@H](C)NC(=O)[C@@H](NC(=O)[C@H](CC(C)C)NC(=O)[C@@H](N)CC(N)=O)CSSC[C@@H](C(=O)N[C@@H](CCCN=C(N)N)C(=O)N[C@@H](CCCCN)C(=O)N[C@@H](Cc2ccccc2)C(=O)NCC(=O)N[C@@H](CCCN=C(N)N)C(=O)N[C@@H](CCCN=C(N)N)C(=O)O)NC(=O)[C@H](CCC(N)=O)NC(=O)[C@@H]2CCCN2C1=O [NLCASLRARHTIPQCRKFGRR]

The next lines start with the compound.

SMILES: C[C@H](NC(=O)[C@H](Cc1ccccc1)NC(=O)[C@H](CCCCN)NC(=O)[C@H](CCCCN)NC(=O)[C@H](C)NC(=O)[C@H](Cc1ccccc1)NC(=O)[C@H](CCCCN)NC(=O)[C@H](CCCCN)NC(=O)[C@H](C)NC(=O)[C@H](Cc1ccccc1)NC(=O)[C@H](CCCCN)NC(=O)[C@H](CCCCN)NC(=O)[C@H](C)NC(=O)[C@H](Cc1ccccc1)NC(=O)[C@H](CCCCN)NC(=O)[C@H](CCCCN)NC(=O)[C@H](C)NC(=O)[C@H](Cc1ccccc1)NC(=O)[C@H](CCCCN)NC(=O)[C@H](CCCCN)NC(=O)[C@H](C)NC(=O)[C@@H](N)Cc1ccccc1)C(=O)N[C@@H](CCCCN)C(=O)N[C@@H](CCCCN)C(=O)O [FAKKFAKKFAKKFAKKFAKKFAKK]
- MIC [1]: 61.7 µM (≈ 177 µg/mL)
- MIC [2]: 7.9 µM (≈ 22.6 µg/mL)
- MIC [3]: ≥ 87.2 µM
- MIC [4]: 21.6 µM (≈ 62 µg/mL)
- MIC [5]: 8.14 µM (≈ 23.3 µg/mL)

SMILES: C[C@H](NC(=O)[C@H](CCCCN)NC(=O)[C@H](Cc1ccccc1)NC(=O)[C@H](C)NC(=O)[C@H](CCCCN)NC(=O)[C@H](Cc1ccccc1)NC(=O)[C@H](C)NC(=O)[C@H](CCCCN)NC(=O)[C@H](Cc1ccccc1)NC(=O)[C@H](C)NC(=O)[C@H](CCCCN)NC(=O)[C@H](Cc1ccccc1)NC(=O)[C@H](C)NC(=O)[C@H](CCCCN)NC(=O)[C@H](Cc1ccccc1)NC(=O)[C@H](C)NC(=O)[C@H](CCCCN)NC(=O)[C@H](Cc1ccccc1)NC(=O)[C@H](C)NC(=O)[C@H](CCCCN)NC(=O)[C@H](Cc1ccccc1)NC(=O)[C@H](C)NC(=O)[C@H](CCCCN)NC(=O)[C@@H](N)Cc1ccccc1)C(=O)O [FKAFKAFKAFKAFKAFKAFKAFKA]
- MIC [1]: 127 µM (≈ 354 µg/mL)
- MIC [2]: 8.11 µM (≈ 22.6 µg/mL)
- MIC [3]: ≥ 179 µM
- MIC [4]: 8.96 µM (≈ 25 µg/mL)
- MIC [5]: 8.11 µM (≈ 22.6 µg/mL)

SMILES: CC[C@H](C)[C@H](NC(=O)[C@@H](NC(=O)[C@H](CO)NC(=O)[C@H](C)NC(=O)[C@@H](NC(=O)CNC(=O)[C@H](CCCCN)NC(=O)[C@H](CCCCN)NC(=O)[C@@H](NC(=O)[C@@H](NC(=O)[C@H](CC(=O)O)NC(=O)[C@H](Cc1ccccc1)NC(=O)[C@H](CC(C)C)NC(=O)CN)C(C)C)[C@@H](C)CC)C(C)C)C(C)C)C(=O)NCC(=O)NCC(=O)N[C@@H](CC(C)C)C(=O)O [GLFDVIKKGVASVIGGL]
- MIC [6]: ≥ 38.3 µM
- MIC [7]: ≥ 153 µM

SMILES: CC[C@H](C)[C@H](NC(=O)[C@H](Cc1ccccc1)NC(=O)[C@H](CO)NC(=O)[C@H](CCCCN)NC(=O)[C@H](Cc1c[nH]c2ccccc12)NC(=O)[C@@H](N)CCCCN)C(=O)N[C@@H](CCCCN)C(=O)N[C@@H](CC(N)=O)C(=O)N[C@@H](CC(C)C)C(=O)N[C@@H](CCC(=O)O)C(=O)N[C@@H](CCCCN)C(=O)N[C@H](C(=O)N[C@@H](CC(C)C)C(=O)N[C@@H](CCCCN)C(=O)N[C@@H](CCCCN)C(=O)NCC(=O)N1CCC[C@H]1C(=O)N[C@H](C(=O)N[C@@H](CC(C)C)C(=O)N[C@@H](C)C(=O)N[C@@H](CC(N)=O)C(=O)N[C@@H](CC(C)C)C(=O)N[C@H](C(=O)N[C@@H](CO)C(=O)N[C@H](C(=O)N[C@H](C(=O)O)C(C)C)[C@@H](C)CC)C(C)C)[C@@H](C)CC)C(C)C [KWKSFIKNLEKVLKKGPILANLVSIV]
- MIC [8]: 0.674 µM (≈ 2 µg/mL)
- MIC [9]: 2.7 µM (≈ 8 µg/mL)
